In patent US6921530B1, “Low dose IL-2 for potentiation of immunity” (Cornell Research Foundation, Inc., priority 1999, dated 2005):
Several values for one entry are separate records, joined by “and”; a condition that tells them apart may be missing. Equal entries are not always repeated.

Experiments:
[1] = test system: HIV p24-reactive T cells and NK cells; test: Activation markers after 18 h whole blood activation with HIV p24 (flow cytometry); assay type: cell-based, human
Description: FIG. 4 Expression of activation markers of CD4+ T cells and CD4− T cells after stimulation with HIV p24. Vertical axis=CD4, upper row horizontal axis=CD69, middle row=CD25, lower row=IFN-γ. A=subject #1, B=subject #2, C=subject #3, and D=subject #8. Numbers in right quadrants represent the % of CD4+ (upper) and CD4− (lower) T cells that reacted with the monoclonal antibody directed against the respective activation marker. The numbers in the column on the right represent the mean±SEM of the percentage positive cells from all 4 subjects. The values for control cultures, which received monoclonal antibodies reactive with accessory molecules alone (CD28 & CD49d) without HIV p24, were subtracted from the plots and percentages shown.
To identify activated cells, whole blood (1 ml) was cultured for 18 hours with the co-stimulatory antibodies anti-CD28 and anti-CD49d, and HIV p24 antigen (1 μg/ml, Research Diagnostics, Inc., Flanders N.J.) and cytomegalovirus antigen (1 μg/ml, Advanced Biotechnologies, Columbia, Md.). At the end of the incubaton the erythrocytes were lysed using FACSLysing Solution™ (9 ml). The cells were then either frozen at −70° C. in 2 ml RPMI 1640 medum with 10% Dimethyl Sulfoxide (Sigma, St. Louis, Mo.) or permeabilized with FACSPerm Solution™ (2 ml). Thereafter the cells were reacted with anti-CD3-PerCP, anti-CD4-PE, anti-CD8-PE, anti-CD56-PE, anti-CD69-FITC, anti-CD25-FITC, and anti-IFN-γ-FITC. All antibodies were from Becton Dickinson.
FIG. 5 Expression of interferon γ (IFN-γ) by CD-3+ and CD3− lymphocytes. A. Cells examined for size and granularity (left panel), CD3 expression (middle panel), and CD8 expression (right panel). B. Expression of IFN-γ and CD56 by CD3+ cells (gate R2), according to CD8− cells (gate R4, left panels), CD8 dim (gate R5, middle panels), and CD8+ (gate R6, right panels). Control cultures stimulated only with accessory antibodies (upper panels, HIV p24-stimulated cultures (lower panels). C. Expression of IFN-γ and CD56 by CD3− cells (gate R3), according to CD8− cells (gate R4, left panels), CD8dim (gate 5, middle panels) and CD8+ (gate R6, right panels). Control cultures stimulated only with accessory antibodies (upper panes, antiCD28, CD49d), HIV p-24-stimulated cultures (lower panels). Numbers in upper quadrants represent the percentages of CD56− and CD56+ cells that also reacted with anti-IFN-γ. To examine the activation of T cells and NK cells together, the cells were reacted with anti-CD3-PerCP, anti-CD8-PE, and anti-CD56-FITC, together with anti-IFN-γ-APC, all from Becton Dickinson.
To examine the HIV specific reactivity of CD4+ T cells, we performed an 18-hour activation of whole blood with HIV p24 followed by a 4-hour incubation with Brefeldin A to inhibit secretion. Subsequently, the cells were examined by flow cytometry after reaction with fluorochrome-conjugated monoclonal antibodies. Shown in FIG. 4 are the results from experiments performed with blood from the subjects who underwent a second treatment interruption when they had experienced the second CD8+ T lymphocytosis and had reached a stable concentration of plasma virus. Only CD3+ T cells were examined. […] In addition, subjects #1, 2 and 8 also expressed IFN-γ (mean 2.0%±1.2% SEM), while subject #3 had reactivity just above the limits of detection (0.2%). Also depicted in FIG. 4 are the results of the activation markers expressed by CD4− T cells, which are all CD8+, as determined by direct analysis for CD8 expression. There were also CD4− T cells stimulated to express CD69 (mean 3.2%±2.1% SEM) and CD25 (mean 1.9%±0.9% SEM). Moreover, CD4− T cells from subjects #1 and 2 also expressed IFN-γ, whereas the cells from subject 3 and 8 were at the level of detection (0.1%).
It was unexpected to find CD3+, CD4− cells capable of expressing surface markers of activation, and as well, producing detectable intracellular IFN-γ after HIV p24 stimulation. […]

HIV infection = test: Daily IL-2 in conjunction with HAART in HIV infection (earlier experience); assay type: in vivo, human; conditions: after 6 months of IL-2 therapy
Description: Daily low-dose IL-2 therapy served to correct the deficiency in CD4+ T cells, while maintaining the high frequency of CD8+ HIV-specific CTL, and increasing the circulating NK cells.

[2] = Tolerability of daily IL-2 doses in earlier studies of the applicant; assay type: in vivo
Experimental: a) IL-2: The initial dose of IL-2 used in this study is based on our studies in HIV infection. Individuals with HIV were able to tolerate rIL-2 at 1.2×10^6 IU/m^2/day. […] Peak plasma levels are measured at two hours after initial IL-2 injection. Dosage adjustments of IL-2 are made under the following circumstances:
(1) IL-2 Dosage reduction: If a subject experiences WHO grade I systemic toxicity, and is unable to tolerate the daily dose of rIL-2 at 1.2×10^6 IU/m^2/day, the dose is reduced to 0.9×10^6 IU/m^2/day. In the event that toxicity continues, the dose is decreased to 0.75 IU/m^2/day, which is halfway between the previous dose and the dose we have previously determined to be ineffective (0.6 IU/m^2/d).
This dose is midway between the starting dose and the dose found to be toxic in 100% of patients (2.4×10^6 IU /m^2/d). In the event that toxicity occurs, the dose is adjusted to 1.4×10^6 IU 1m^2/day, and if there is still toxicity, the dose will be returned to 1.2×10^6 IU /m^2/day.

HCV [3] = conditions: cited from earlier work
HCV [4] = conditions: 1-2 MIU s.c. daily; cited from earlier work
HBV = conditions: cited from earlier work
[5] = 4 subjects after second treatment interruption, mean ± SEM
[6] = subject #1, HIV antigen activated

Interleukin-2 [IL-2]
CD4+ T cells stimulated by HIV p24 to express CD25 [1, 5]: 15.5%±2.1% and 15.5% | CD4+ T cells stimulated by HIV p24 to express CD69 [1, 5]: 4.3%±0.45 | CD4− T cells stimulated by HIV p24 to express CD25 [1, 5]: 1.9%±0.9% | CD4− T cells stimulated by HIV p24 to express CD69 [1, 5]: 3.2%±2.1% | CD4− T cells expressing IFN-γ ([1]; subject 3 and 8, at the level of detection): 0.1% | CD3-, CD8-dim cells that are CD56+ producing IFN-γ [1, 6]: 28% | CD3−, CD8− cells that express CD56 producing IFN-γ [1, 6]: 33% | CD4+ T cells stimulated by HIV p24 to express IFN-γ ([1]; subject #3, just above the limits of detection): 0.2% | CD4+ T cells stimulated by HIV p24 to express IFN-γ ([1]; subjects #1, 2 and 8, mean ± SEM): 2.0%±1.2% | Delayed Type Hypersensitivity (DTH) to common environmental antigens (HIV infection): more than doubled | patients in whom the dose was toxic ([2]; 2.4×10^6 IU /m^2/d): 100% | dose previously determined to be ineffective ([2]; in vivo): 0.6 IU/m^2/d | tolerated daily dose ([2]; individuals with HIV): 1.2×10^6 IU/m^2/day | dose best tolerated and most effective (HCV [3]; 33 subjects, s.c., 12 weeks, no IFN): 2×10^6 CT/day | sustained virologic response (HCV [3]; in vivo): No sustained virologic response was found | biochemical response rate (normalization of ALT) at the end of treatment (HCV [3]; preferred dose, 12 weeks): 24% | biochemical response rate 6 months following a 12 week course (HCV [3]; preferred dose): 12% | subjects showing a decrease in ALT (HCV [4]): 70% | subjects with 50% reduction in HBV viral titer (HBV; 9×10^6 CU s.c. weekly for three weeks, then 1.8×10^6 CU twice a week for three months): 4/7 | subjects with response (HBV; doses up to 3.6×10^6 CU/day SC qd for eight weeks): 5/30 | subsequent decrease in ALT levels (HBV; following the transient increase): 30% | transient increase in ALT levels (HBV; in vivo): 30%
